From patent publication US20120029187A1, “HALOALKYLSULFONANILIDE DERIVATIVE” (Nissan Chemical Industries, Ltd., priority 2009, published 2012)

Legend:
Format in all cases: in vivo
bulrush [1] = assay: Test Example 2: herbicidal effects during the vegetation period under submerged conditions; details: treatment during the vegetation period under submerged conditions; dose 2.52 g/a
Procedure, shortened: (§1)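 Barnyardgrass, bulrush and ducksalad were co-sown in alluvial soil flooded to 4 cm and grown in a greenhouse at 25 to 30° C. At the 1- or 2-leaf stage, water-diluted emulsifiable concentrates went onto the water surface at set doses (g/a). Herbicidal effect was scored three weeks later on a graded scale.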

barnyardgrass [2] = assay: as above; details: treatment during the vegetation period under submerged conditions; dose 2.52 g/a
Procedure, shortened: as §1

ducksalad [3] = assay: as above; details: treatment during the vegetation period under submerged conditions; dose 2.52 g/a
Procedure, shortened: as §1

transplanted rice = assay: Test Example 1: preemergence treatment under submerged conditions, effect on crop; details: dose 2.52 g/a
Procedure, shortened: (§2)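 Scoring 0 (<5% mortality) to 5 (≥90%) was done three weeks after preemergence application to the water surface of submerged (4 cm) alluvial soil, doses given as g per are. Weeds were seeded and 2.5-leaf rice transplanted on the treatment day; greenhouse at 25–30 °C.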

common chickweed [4] = assay: Test Example 4: herbicidal effect in foliage treatment; details: dose 3.2 g/a, three weeks after application
Procedure, shortened: (§3)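 Visual herbicidal scores on a graded scale were recorded three weeks after foliar application. Compounds went on as diluted emulsifiable concentrates at predetermined g/a to plants grown 14 days in a 25 to 30° C greenhouse.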

giant foxtail [5] = assay: as above; details: dose 3.2 g/a, three weeks after application
Procedure, shortened: as §3

common ragweed [6] = assay: as above; details: dose 3.2 g/a, three weeks after application
Procedure, shortened: as §3

large crabgrass [7] = assay: as above; details: dose 3.2 g/a, three weeks after application
Procedure, shortened: as §3

Italian ryegrass [8] = assay: as above; details: dose 3.2 g/a, three weeks after application
Procedure, shortened: as §3

barnyardgrass [9] = assay: as above; details: dose 3.2 g/a, three weeks after application
Procedure, shortened: as §3

redroot pigweed [10] = assay: as above; details: dose 3.2 g/a, three weeks after application
Procedure, shortened: as §3

common lambsquater [11] = assay: as above; details: dose 3.2 g/a, three weeks after application
Procedure, shortened: as §3

water foxtail [12] = assay: as above; details: dose 3.2 g/a, three weeks after application
Procedure, shortened: as §3

velvetleaf [13] = assay: as above; details: dose 3.2 g/a, three weeks after application
Procedure, shortened: as §3

beadstraw = assay: as above; details: dose 3.2 g/a, three weeks after application
Procedure, shortened: as §3

posumbu knotweed [14] = assay: as above; details: dose 3.2 g/a, three weeks after application
Procedure, shortened: as §3

common chickweed [15] = assay: Test Example 3: herbicidal effects in soil treatment; details: dose 3.2 g/a
Procedure, shortened: (§4)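 Seeds were sown in sterilized diluvial soil and covered with about 1.5 cm of soil. Compounds, formulated as emulsifiable concentrates and diluted with water, were sprayed evenly over the soil surface at set doses in g/a. Herbicidal effect was scored on a rating scale three weeks later.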

giant foxtail [16] = assay: as above; details: dose 3.2 g/a
Procedure, shortened: as §4

common ragweed [17] = assay: as above; details: dose 3.2 g/a
Procedure, shortened: as §4

large crabgrass [18] = assay: as above; details: dose 3.2 g/a
Procedure, shortened: as §4

Italian ryegrass [19] = assay: as above; details: dose 3.2 g/a
Procedure, shortened: as §4

barnyardgrass [20] = assay: as above; details: dose 3.2 g/a
Procedure, shortened: as §4

redroot pigweed [21] = assay: as above; details: dose 3.2 g/a
Procedure, shortened: as §4

common lambsquater [22] = assay: as above; details: dose 3.2 g/a
Procedure, shortened: as §4

water foxtail [23] = assay: as above; details: dose 3.2 g/a
Procedure, shortened: as §4

velvetleaf [24] = assay: as above; details: dose 3.2 g/a
Procedure, shortened: as §4

posumbu knotweed [25] = assay: as above; details: dose 3.2 g/a
Procedure, shortened: as §4

bulrush [26] = assay: Test Example 1: herbicidal effects in preemergence treatment under submerged conditions; details: dose 2.52 g/a
Procedure, shortened: as §2

barnyardgrass [27] = assay: as above; details: dose 2.52 g/a
Procedure, shortened: as §2

ducksalad [28] = assay: as above; details: dose 2.52 g/a
Procedure, shortened: as §2

SMILES	B: bulrush, herbicidal effect (evaluation scale 0-5) (bulrush [1])	A: barnyardgrass, herbicidal effect (evaluation scale 0-5) (barnyardgrass [2])	C: ducksalad, herbicidal effect (evaluation scale 0-5) (ducksalad [3])	a: transplanted rice, effect on crop (evaluation scale 0-5) (transplanted rice)	N: common chickweed, herbicidal effect (common chickweed [4])	E: giant foxtail, herbicidal effect (giant foxtail [5])	J: common ragweed, herbicidal effect (common ragweed [6])	D: large crabgrass, herbicidal effect (large crabgrass [7])	H: Italian ryegrass, herbicidal effect (Italian ryegrass [8])	A: barnyardgrass, herbicidal effect (barnyardgrass [9])	K: redroot pigweed, herbicidal effect (redroot pigweed [10])	L: common lambsquater, herbicidal effect (common lambsquater [11])	G: water foxtail, herbicidal effect (water foxtail [12])	I: velvetleaf, herbicidal effect (velvetleaf [13])	O: beadstraw, herbicidal effect (beadstraw)	M: posumbu knotweed, herbicidal effect (posumbu knotweed [14])	N: common chickweed, herbicidal effect (evaluation scale 0-5) (common chickweed [15])	E: giant foxtail, herbicidal effect (evaluation scale 0-5) (giant foxtail [16])	J: common ragweed, herbicidal effect (evaluation scale 0-5) (common ragweed [17])	D: large crabgrass, herbicidal effect (evaluation scale 0-5) (large crabgrass [18])	other results
CCOC(=O)N(c1ccccc1CN1COC(C)(C)C(Br)C1=O)S(=O)(=O)C(F)(F)F (stereo not drawn) [II-39, 5-bromo-6,6-dimethyl-3-[2-(N-ethoxylcarbonyl-N-trifluoromethanesulfonyl)aminobenzyl]-1,3-oxazinan-4-one]	5 (mortality of 90% or above (nearly complete death))	5 (mortality of 90% or above (nearly complete death))	5 (mortality of 90% or above (nearly complete death))	0 (mortality of less than 5% (almost ineffective))	4 (mortality of at least 70% and less than 90%)	5 (mortality of 90% or above (nearly complete death))	5 (mortality of 90% or above (nearly complete death))	4 (mortality of at least 70% and less than 90%)	3 (mortality of at least 40% and less than 70%)	5 (mortality of 90% or above (nearly complete death))	4 (mortality of at least 70% and less than 90%)	3 (mortality of at least 40% and less than 70%)	5 (mortality of 90% or above (nearly complete death))	5 (mortality of 90% or above (nearly complete death))	4 (mortality of at least 70% and less than 90%)	3 (mortality of at least 40% and less than 70%)	5 (mortality of 90% or above (nearly complete death))	5 (mortality of 90% or above (nearly complete death))	4 (mortality of at least 70% and less than 90%)	5 (mortality of 90% or above (nearly complete death))	H: Italian ryegrass, herbicidal effect (evaluation scale 0-5) (Italian ryegrass [19]): 5 (mortality of 90% or above (nearly complete death)); A: barnyardgrass, herbicidal effect (evaluation scale 0-5) (barnyardgrass [20]): 5 (mortality of 90% or above (nearly complete death)); K: redroot pigweed, herbicidal effect (evaluation scale 0-5) (redroot pigweed [21]): 1 (mortality of at least 5% and less than 20%); L: common lambsquater, herbicidal effect (evaluation scale 0-5) (common lambsquater [22]): 5 (mortality of 90% or above (nearly complete death)); G: water foxtail, herbicidal effect (evaluation scale 0-5) (water foxtail [23]): 5 (mortality of 90% or above (nearly complete death)); I: velvetleaf, herbicidal effect (evaluation scale 0-5) (velvetleaf [24]): 5 (mortality of 90% or above (nearly complete death)); M: posumbu knotweed, herbicidal effect (evaluation scale 0-5) (posumbu knotweed [25]): 5 (mortality of 90% or above (nearly complete death)); B: bulrush, herbicidal effect (evaluation scale 0-5) (bulrush [26]): 5 (mortality of 90% or above (nearly complete death)); A: barnyardgrass, herbicidal effect (evaluation scale 0-5) (barnyardgrass [27]): 5 (mortality of 90% or above (nearly complete death)); C: ducksalad, herbicidal effect (evaluation scale 0-5) (ducksalad [28]): 5 (mortality of 90% or above (nearly complete death))
CCC1(C)CC(=O)N(Cc2ccccc2NS(=O)(=O)C(F)(F)F)CO1 (stereo not drawn) [II-40]	5 (mortality of 90% or above (nearly complete death))	4 (mortality of at least 70% and less than 90%)	5 (mortality of 90% or above (nearly complete death))	0 (mortality of less than 5% (almost ineffective))	4 (mortality of at least 70% and less than 90%)	4 (mortality of at least 70% and less than 90%)	4 (mortality of at least 70% and less than 90%)	3 (mortality of at least 40% and less than 70%)	5 (mortality of 90% or above (nearly complete death))	5 (mortality of 90% or above (nearly complete death))	0 (mortality of less than 5% (almost ineffective))	4 (mortality of at least 70% and less than 90%)	5 (mortality of 90% or above (nearly complete death))	5 (mortality of 90% or above (nearly complete death))	3 (mortality of at least 40% and less than 70%)	0 (mortality of less than 5% (almost ineffective))	5 (mortality of 90% or above (nearly complete death))	5 (mortality of 90% or above (nearly complete death))	5 (mortality of 90% or above (nearly complete death))	5 (mortality of 90% or above (nearly complete death))	H: Italian ryegrass, herbicidal effect (evaluation scale 0-5) (Italian ryegrass [19]): 5 (mortality of 90% or above (nearly complete death)); A: barnyardgrass, herbicidal effect (evaluation scale 0-5) (barnyardgrass [20]): 5 (mortality of 90% or above (nearly complete death)); K: redroot pigweed, herbicidal effect (evaluation scale 0-5) (redroot pigweed [21]): 4 (mortality of at least 70% and less than 90%); L: common lambsquater, herbicidal effect (evaluation scale 0-5) (common lambsquater [22]): 0 (mortality of less than 5% (almost ineffective)); G: water foxtail, herbicidal effect (evaluation scale 0-5) (water foxtail [23]): 5 (mortality of 90% or above (nearly complete death)); I: velvetleaf, herbicidal effect (evaluation scale 0-5) (velvetleaf [24]): 5 (mortality of 90% or above (nearly complete death)); M: posumbu knotweed, herbicidal effect (evaluation scale 0-5) (posumbu knotweed [25]): 4 (mortality of at least 70% and less than 90%); B: bulrush, herbicidal effect (evaluation scale 0-5) (bulrush [26]): 5 (mortality of 90% or above (nearly complete death)); A: barnyardgrass, herbicidal effect (evaluation scale 0-5) (barnyardgrass [27]): 5 (mortality of 90% or above (nearly complete death)); C: ducksalad, herbicidal effect (evaluation scale 0-5) (ducksalad [28]): 5 (mortality of 90% or above (nearly complete death))
